The assay deals with T1, Human ATX protein (Homo sapiens, UniProt Q13822).
T1 construct: made in house
Kind of assay: Autotaxin (ATX) assay, FRET with FS-3 substrate. In kind it is biochemical. The note with it: upper bound bins (no greater than 100, 250 or 500 nM); FS-3 2 μM, ATX 1.0 μg/mL. An excerpt: ATX (Autotaxin) is a 125 KDa glycoprotein with lysophospholipase D (LPLD) activity that generates the bioactive lipid lysophosphatidic acid (LPA) from lysophosphatidylcholine (LPC). The ATX biochemical assay utilizes a FRET (fluorescence resonance energy transfer) technology platform. The fluorescence signal of FRET substrate FS-3 is quenched due to intra-molecular FRET of a fluorophore to a non-fluorescing quencher (Ferguson, C. G., et al., Org Lett. 2006 May 11; 8(10): 2023-2026, which is incorporated by reference in its entirety). ATX catalyzes the hydrolysis of the substrate which separates the dabsyl quencher from the fluorescein reporter, which becomes fluorescent. The reaction is monitored by a SpectraMax M5 (Molecular Devices, Sunnyvale, Calif.) with at excitation wavelength 485 nm and emission wavelength […].
Fatty acid free-BSA (Sigma A8806): 10 mg/mL in H2O, stored at 4° C.
2×ATX assay buffer: 100 mM Tris, 280 mM NaCl, 10 mM KCl, 2 mM CaCl2, 2 mM MgCl2, pH 7.4.
Human ATX protein: expressed and purified in house. Stored at −80° C.
Substrate FS-3 (Echelon, L-2000): 100 μg in 77.74 μL H2O (1 mM stock), stored at −20° C.
384-well flat bottom plates—Corning #3575.
Compound dilution—All compounds were provided at 10 mM in 100% DMSO. In the first well, 2 μL of 10 mM compound was added to 78 μL of DMSO (1:40 dilution). In subsequent wells 3-fold dilution (total 10 dilutions) were performed.
1×ATX assay buffer was made up with a final concentration of 1 mg/mL fatty acid free-BSA using 2×ATX assay buffer, 10 mg/ml fatty acid free-BSA and ddH2O.
ATX protein was diluted with 1×ATX assay buffer to a concentration of 1.32 μg/mL (1.32×). 38 μL was added per well to the assay plate. The final concentration of ATX in the reaction as 1.0 μg/mL.
2 μL per well of compounds was transferred to provide the desired concentration. The plate was centrifuged, then incubated at room temperature for 30 minutes on the shaker.
FS-3 was diluted with 1×ATX assay buffer to a concentration of FS-3 of 10 μM (5×). Then, 10 μL was added per well to the assay plate. The final concentration of FS-3 in the reaction was 2 μM. The plate was centrifuged. The plate was kept shaking at room temperature for 2 hours. Because FS-3 substrate is light sensitive, plates were kept covered and protected from light.
Fluorescence was measured using SpectraMax M5 (excitation at 485 nm/emission at 538 nm, top read).

This note sets out measurements from patent US20160039825A1 (BIOGEN MA INC., priority 2013, published 2016).

In general, IC50 refers to the midpoint of a concentration-inhibition curve. Read a high IC50 as lower potency. `O=C(CN1CC2CC2C1)c1cc2n(n1)CCN(C(=O)OCc1cc(C(F)(F)F)cc(C(F)(F)F)c1)C2` (centres unmarked) [Example 258] gave an IC50 of no more than 0.1 µM.

As for `CC1CN(c2cc3n(n2)CCCN(C(=O)OCc2cc(C(F)(F)F)cc(C(F)(F)F)c2)C3)CCN1` (centres unmarked) [Example 343], the IC50 is no more than 0.1 µM.

The compound `CN1CCN(C(=O)c2nn3c(c2F)CN(C(=O)OCc2cc(Cl)cc(C(F)(F)F)c2)CCC3)CC1` [Example 515] gave an IC50 of no more than 0.1 µM.

Compound `CN1CC2CCC1CN2C(=O)c1cc2n(n1)CCCN(C(=O)OCc1cc(C(F)(F)F)cc(C(F)(F)F)c1)C2` (centres unmarked) [Example 222] had an IC50 of no more than 0.1 µM.

With `CN1CCC2C1CCN2c1cc2n(n1)CCCN(C(=O)OCc1cc(C(F)(F)F)cc(C(F)(F)F)c1)C2` (centres unmarked) [Example 360], the IC50 is no more than 0.1 µM.

`O=C(OCc1cc(Cl)cc(C(F)(F)F)c1)N1CCCn2nc(C(=O)N3CCNCC3)cc2C1` [Example 158, 3-chloro-5-(trifluoromethyl)benzyl 2-(piperazine-1-carbonyl)-7,8-dihydro-4H-pyrazolo[1,5-a][1,4]diazepine-5(6H)-carboxylate]: the IC50 was no more than 0.1 µM.

`O=C(O)c1cc2n(n1)CCCN(C(=O)OCc1cc(F)cc(Cl)c1)C2` [Example 68, 5-(((3-Chloro-5-fluorobenzyl)oxy)carbonyl)-5,6,7,8-tetrahydro-4H-pyrazolo[1,5-a][1,4]diazepine-2-carboxylic acid] showed an IC50 of no more than 0.5 µM.

In turn, `CCN1CCN(C(=O)c2cc3n(n2)CCCN(C(=O)OCc2cc(C(F)(F)F)cc(C(F)(F)F)c2)C3)C(C)(C)C1` [Example 244] yielded an IC50 of no more than 0.1 µM.

Regarding `CON(C)C(=O)c1cc2n(n1)CCCN(C(=O)OCc1cc(C(F)(F)F)cc(C(F)(F)F)c1)C2` [Example 144, 3,5-Bis(trifluoromethyl)benzyl 2-(methoxy(methyl)carbamoyl)-7,8-dihydro-4H-pyrazolo[1,5-a][1,4]diazepine-5(6H)-carboxylate], the IC50 was no more than 0.1 µM.

Take `O=C(O)C1CNCCN1C(=O)c1cc2n(n1)CCCN(C(=O)OCc1cc(C(F)(F)F)cc(C(F)(F)F)c1)C2` (centres unmarked) [Example 191]: the IC50 was no more than 0.1 µM.

Regarding `O=C(O)C1CC2CCCC(C1)N2C(=O)c1cc2n(n1)CCCN(C(=O)OCc1cc(F)cc(Cl)c1)C2` (centres unmarked) [Example 61, 9-(5-((3-Chloro-5-fluorobenzyloxy)carbonyl)-5,6,7,8-tetrahydro-4H-pyrazolo[1,5-a][1,4]diazepine-2-carbonyl)-9-aza-bicyclo[3.3.1]nonane-3-carboxylic acid], the IC50 was no more than 0.1 µM.

In turn, `O=C(OCc1cc(C(F)(F)F)cc(C(F)(F)F)c1)N1CCCn2nc(C3=CC4CCC(C3)N4)cc2C1` (centres unmarked) [Example 376] returned an IC50 of no more than 0.1 µM.

The compound `CN1CCN(C(=O)c2cc3n(n2)CCN(C(=O)OCc2cc(Cl)cc(C(F)(F)F)c2)C3)C(C)(C)C1` [Example 495] yielded an IC50 of no more than 0.1 µM.

The compound `O=C(OCc1cc(C(F)(F)F)cc(C(F)(F)F)c1)N1CCCn2nc(N3CC4CNCC4C3)cc2C1` (centres unmarked) [Example 351] had an IC50 of no more than 0.1 µM.

For `CC1CN(C(=O)c2cc3n(n2)CCCN(C(=O)OCc2cc(Cl)cc(C(F)(F)F)c2)C3)CC(C)N1` (centres unmarked) [Example 198], the IC50 is no more than 0.1 µM.

`CC(C)N1CCN(c2cc3n(n2)CCCN(C(=O)OCc2cc(C(F)(F)F)cc(C(F)(F)F)c2)C3)CC1` [Example 356] registered an IC50 of no more than 0.1 µM.

Take `O=C(OCc1cc(C(F)(F)F)cc(C(F)(F)F)c1)N1CCCn2nc(C3=CCNCC3)cc2C1` [Example 373, 3,5-bis(trifluoromethyl)benzyl 2-(1,2,3,6-tetrahydropyridin-4-yl)-7,8-dihydro-4H-pyrazolo[1,5-a][1,4]diazepine-5(6H)-carboxylate]: the IC50 is no more than 0.1 µM.

For the compound `O=C(O)c1cnc2n1CCN(C(=O)OCc1cc(C(F)(F)F)cc(C(F)(F)F)c1)CC2` [Example 10, 7-(((3,5-Bis(trifluoromethyl)benzyl)oxy)carbonyl)-6,7,8,9-tetrahydro-5H-imidazo[1,2-d][1,4]diazepine-3-carboxylic acid], the 50% inhibitory concentration (IC50) was no more than 0.5 µM.

Consider `O=C(OCc1cc(Cl)cc(Cl)c1)N1CCCn2nc(C(=O)N3C4CCCC3CCC4)cc2C1` [Example 12, 3,5-Dichlorobenzyl 2-(9-azabicyclo[3.3.1]nonane-9-carbonyl)-7,8-dihydro-4H-pyrazolo[1,5-a][1,4]diazepine-5(6H)-carboxylate], for which the IC50 was no more than 0.1 µM.

Consider `CCOC(=O)c1cc2n(c1)CCCN(C(=O)OCc1cc(Cl)cc(Cl)c1)C2` [Example 99, 2-(3,5-Dichlorobenzyl) 8-ethyl 4,5-dihydro-1H-pyrrolo[1,2-a][1,4]diazepine-2,8(3H)-dicarboxylate], for which the IC50 is no more than 0.5 µM.

For the compound `O=C(OCc1cc(Cl)cc(C(F)(F)F)c1)N1CCCn2nc(C(=O)N3CC4CCC(C3)N4)cc2C1` [Example 209], the IC50 was no more than 0.1 µM.

For the compound `CN1CCC(Nc2cc3n(n2)CCCN(C(=O)OCc2cc(C(F)(F)F)cc(C(F)(F)F)c2)C3)CC1` [Example 352, 3,5-bis(trifluoromethyl)benzyl 2-((1-methylpiperidin-4-yl)amino)-7,8-dihydro-4H-pyrazolo[1,5-a][1,4]diazepine-5(6H)-carboxylate], the IC50 is no more than 0.25 µM.

As to `CC1C=C(c2cc3n(n2)CCCN(C(=O)OCc2cc(C(F)(F)F)cc(C(F)(F)F)c2)C3)CC(C)N1` (centres unmarked) [Example 378], the IC50 was no more than 0.1 µM.

For `O=C(OCc1cc(C(F)(F)F)cc(C(F)(F)F)c1)N1CCCn2nc(CN3C4CCCC3CC4)cc2C1` [Example 292], the IC50 was no more than 0.25 µM.

`CC1CNCCN1C(=O)c1cc2n(n1)CCN(C(=O)OCc1cc(C(F)(F)F)cc(C(F)(F)F)c1)C2` (centres unmarked) [Example 423] showed an IC50 of no more than 0.1 µM.

In the case of `O=C(OCc1cc(F)cc(C(F)(F)F)c1)N1CCn2cc(C(F)(F)F)nc2C1` [Example 126, 3-Fluoro-5-(trifluoromethyl)benzyl 2-(trifluoromethyl)-5,6-dihydroimidazo[1,2-a]pyrazine-7(8H)-carboxylate], the IC50 is no more than 0.5 µM.

As to `CCN1CCN(C(=O)c2cc3n(n2)CCCN(C(=O)OCc2cc(Cl)cc(C(F)(F)F)c2)C3)C2(CC2)C1` [Example 179], the IC50 is no more than 0.1 µM.

`CC(c1cc2n(n1)CCCN(C(=O)OCc1cc(Cl)cc(Cl)c1)C2)N1CCCCC1` (centres unmarked) [Example 446] came in with an IC50 of no more than 0.25 µM.

`CN1CCN(Cc2cc3n(n2)CCCN(C(=O)OCc2cc(C(F)(F)F)cc(C(F)(F)F)c2)C3)CC1` [Example 290, 3,5-bis(trifluoromethyl)benzyl 2-((4-methylpiperazin-1-yl)methyl)-7,8-dihydro-4H-pyrazolo[1,5-a][1,4]diazepine-5(6H)-carboxylate] returned an IC50 of no more than 0.5 µM.

`N#Cc1cc2n(n1)CCCN(C(=O)OCc1cc(C(F)(F)F)cc(C(F)(F)F)c1)C2` [Example 125, 3,5-Bis(trifluoromethyl)benzyl 2-cyano-7,8-dihydro-4H-pyrazolo[1,5-a][1,4]diazepine-5(6H)-carboxylate] gave an IC50 of no more than 0.1 µM.

`O=C(O)c1cc2n(n1)CCCN(C(=O)OCc1cc(Cl)cc(Cl)c1)C2` [Example 7, 5-(((3,5-Dichlorobenzyl)oxy)carbonyl)-5,6,7,8-tetrahydro-4H-pyrazolo[1,5-a][1,4]diazepine-2-carboxylic acid]: the IC50 is no more than 0.1 µM.

Consider `O=C(O)C1CC2CCCC(C1)N2C(=O)c1cc2n(n1)CCN(C(=O)OCc1ccc(C(F)(F)F)cc1)C2` (centres unmarked) [Example 45, 9-(5-(((4-(Trifluoromethyl)benzyl)oxy)carbonyl)-4,5,6,7-tetrahydropyrazolo[1,5-a]pyrazine-2-carbonyl)-9-azabicyclo[3.3.1]nonane-3-carboxylic acid], for which the IC50 is no more than 0.25 µM.

For the compound `CC(C)(C)OC(=O)N1CCN(C(=O)c2cc3n(n2)CCN(C(=O)OCc2cc(C(F)(F)F)cc(C(F)(F)F)c2)C3)C(C)(C)C1` [Example 462], the IC50 was no more than 0.1 µM.

The compound `O=C(OCc1cc(C(F)(F)F)cc(C(F)(F)F)c1)N1CCCn2nc(C(=O)N3CCC(O)CC3)cc2C1` [Example 31, 3,5-Bis(trifluoromethyl)benzyl 2-(4-hydroxypiperidine-1-carbonyl)-7,8-dihydro-4H-pyrazolo[1,5-a][1,4]diazepine-5(6H)-carboxylate] yielded an IC50 of no more than 0.1 µM.

For the compound `O=C(OCc1cc(C(F)(F)F)cc(C(F)(F)F)c1)N1CCCn2nc(C(=O)N3CCOCC3)cc2C1` [Example 30, 3,5-Bis(trifluoromethyl)benzyl 2-(morpholine-4-carbonyl)-7,8-dihydro-4H-pyrazolo[1,5-a][1,4]diazepine-5(6H)-carboxylate], the IC50 was no more than 0.1 µM.
